Results reported in US20240400542A1 (University of Virginia Patent Foundation, priority 2021, published 2024).

Tests used:
PFKL [1] = molecular target: T1, PFKL (Homo sapiens, UniProt P17858); assay: SILAC competitive chemical proteomic assay (TH211 probe, LC-MS/MS); format: cell-based; conditions: HEK293T in situ, vehicle (light) vs inhibitor 2 μM (heavy) 1 hr, then TH211 50 μM 2 h; protein/site not given
T1 construct: endogenous in cells; host or cells: HEK293T
T1 sequence (P17858 1-780): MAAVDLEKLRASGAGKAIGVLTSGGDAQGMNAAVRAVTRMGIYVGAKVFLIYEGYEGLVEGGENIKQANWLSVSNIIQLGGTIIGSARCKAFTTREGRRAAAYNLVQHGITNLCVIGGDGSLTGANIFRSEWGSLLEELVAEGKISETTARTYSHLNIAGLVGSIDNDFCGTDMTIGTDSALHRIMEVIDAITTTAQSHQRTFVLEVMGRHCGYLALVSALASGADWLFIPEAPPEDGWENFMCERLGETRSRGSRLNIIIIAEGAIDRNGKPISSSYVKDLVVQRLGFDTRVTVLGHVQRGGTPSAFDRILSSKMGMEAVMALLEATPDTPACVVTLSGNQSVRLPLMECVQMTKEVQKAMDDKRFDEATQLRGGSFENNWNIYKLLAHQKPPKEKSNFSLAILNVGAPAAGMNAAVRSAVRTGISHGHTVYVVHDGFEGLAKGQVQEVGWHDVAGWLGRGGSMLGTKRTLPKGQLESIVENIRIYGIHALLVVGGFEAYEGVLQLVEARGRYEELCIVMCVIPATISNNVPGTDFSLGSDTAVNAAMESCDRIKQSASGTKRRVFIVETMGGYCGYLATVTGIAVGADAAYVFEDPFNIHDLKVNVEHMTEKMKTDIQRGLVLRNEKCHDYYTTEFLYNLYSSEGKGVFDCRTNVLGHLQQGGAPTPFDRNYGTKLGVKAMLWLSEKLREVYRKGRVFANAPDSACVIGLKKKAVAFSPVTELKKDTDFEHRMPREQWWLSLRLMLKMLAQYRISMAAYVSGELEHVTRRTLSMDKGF
Description: The light and heavy proteomes (2.3 mg/mL, 432 μL) prepared from HEK293T cells that were pretreated in situ with vehicle (DMSO) or the inhibitor (2 μM), respectively, at 37° C. for 1 hr followed by probe TH211 treatment (50 μM) for 2 h, were directly were subjected to click reaction with the desthiobiotin-PEG3-azide (10 mM in DMSO, 10 μL, final concentration 200 μM) in the presence of TCEP (50 mM, 10 μL), TBTA (1.7 mM, 33 μL) and CuSO4 (50 mM, 10 μL) at room temperature for 1 hr. The light and the heavy samples were mixed in the chloroform-methanol extraction step. The subsequent steps including reduction with dithiothreitol, alkylation with iodoacetamide, digestion with Trypsin/Lys-C, enrichment with avidin beads were conducted as previously described^26.
(§1) Some SuTEx analogues with RF001 fragment were synthesized and characterized. The in situ competition assay was then conducted, during which HEK293T cells were treated with 1 μM of a SuTEx analogue for 1 h, followed by treatment with 25 μM of TH211 as the probe for 2 h. […] The analogues with electron-donating groups like methyl or methoxy on the para position of phenyl performed better than those with electron-withdrawing groups. Under the same condition, the IC5o of TH220 was determined as 305.6 nM. The identity of the bound protein was studied by LC-MS/MS. The assay results indicated PFKL as the potential target and that binding sites include Y674 and K677, since the ratio trends are the same as that found in the in situ competition assay. To study selective targeting of PFKL by the series of SuTEx analogues, Fag-PFKL, Flag-PFKM, and Flag-PFKP were overexpressed in HEK293T cells and in vitro competition assays were performed for comparison. […] To optimize these SuTEx ligands, another series of derivatives were synthesized and evaluated with TH233 as a negative control and TH220 as positive control, respectively. […] Compared to TH220, the probinding activity of XJ-2-103 with trifluoromethyl group at para position of the phenyl ring is not as good, which is consistent with the results shown in FIG. 18A.

PFKL [2] = molecular target: T1, PFKL; assay: In situ gel-based ABPP, blockade of TH211 probe labeling in HEK293T cells; format: cell-based; conditions: then 25 μM TH211 2 h; for probinding activity (blockade of TH211 probe labeling), protein at ˜80 molecular weight: HEK293T cells in situ, 1 μM compound 1 h
Description: HEK293T cells were incubated in 10 cm petri dishes with DMEM medium supplemented with 10% fetal bovine serum and 1% L-glutamine until the confluency reached about 90%. Aspirate the medium and then add serum-free-medium (SFM) with vehicle only (DMSO) or SuTEx compounds in DMSO, which afforded final concentrations of 0.1% DMSO. After incubation at 37° C. for 1 hrs in CO2 incubator, the medium was aspirated and 25 μM of probe TH211 in SFM was added. After incubation at 37° C. for 2 hrs, the medium was aspirated and the cells were washed off in cold PBS. Centrifuge at 400×g for 5 min to pellet and resuspend pellet again in PBS for 2× total washes. The cell pellets were resuspended and lysed by sonication (1 sec pulse, 20% amplitude, 3 times) in PBS in the presence of EDTA-free protease inhibitor cocktail tablet (Pierce Biotechnology, Waltham, Massachusetts, United States of America). The cell lysates were subject to ultracentrifugation (100,000×g, 45 min at 4° C.) to separate the cytosolic fraction in the supernatant and the membrane fraction as a pellet. Protein concentrations in soluble fraction were measured by the Bio-Rad DC protein assay (Bio-Rad Laboratories, Hercules, California, United States of America). Proteome aliquots (2 mg/mL, 50 μL) were conjugated with fluorophore which was accomplished by copper-catalyzed azide-alkyne cycloaddition (CuAAC) with rhodamine-azide (TAMRA-azide, 1.25 mM, 1 μL, final concentration of 25 μM) in the presence of tris(2-carboxyethyl)phosphine (TCEP, 50 mM fresh in water, 1 μL, final concentration of 1 mM), tris[(1-benzyl-1H-1,2,3-triazol-4-yl)methyl]amine (TBTA, 1.7 mM in 4:1 t-butanol/DMSO, 3 μL, final concentration of 100 μM) and CuSO4 (50 mM, 1 μL, final concentration of 1 mM). After 1 hr incubation at room temperature, reactions were quenched by adding 4×SDS-PAGE loading buffer and beta-mercaptoethanol (17 μL) and samples were resolved by SDS-PAGE followed by in-gel fluorescence scanning.
as §1

[3] = HPLC solution reactivity of probe with n-butylamine (lysine mimetic); format: physicochemical; conditions: TMG base, 0° C., KY-26 compared with p-cresol
Description: (§2) Briefly, reaction progress of KY-26 or XO44 with p-cresol or n-butylamine (16.5 μmol, 3.3 eq.) in the presence of TMG base (1,1,3,3-tetramethylguanidine, 1.1 eq) was evaluated by monitoring probe consumption and quantified based on the signal from the caffeine standard using HPLC. Synthetic peptide reactions were conducted by mixing the peptide (Ac-RLNERHYGGLTGLNK-NH2, 50 nmol, 1.0 eq.) with 1.1 eq of TMG. KY-26 (550 nmol, 11.0 eq) was added to the mixture and the reaction was kept at 37° C. until the reaction achieved at least 50% conversion.
(§3) More particularly, an acetonitrile solution of p-cresol or n-butylamine (16.5 μmol, 3.3 eq.) was mixed with 1.1 eq of TMG. KY-26 or XO44 in ACN:DMF=6:4 (5 μmol, 1.0 eq.) was added to the mixture and the reaction was kept at 0° C. The final molarity for KY-26 or XO44 is 10 mM. Aliquots (50 μl) of the reaction were taken and quenched by adding acetic acid (0.5 M final, 5.0 μmol) and caffeine standard (0.05 M final, 0.5 μmol) at ten-minute intervals for 1.5 hrs. 1.0 μL sample was injected and analyzed by reverse-phase HPLC with mobile phases A (H2O, 0.1% AcOH) and B (CH3CN, 0.1% AcOH) with a gradient of 0-15-85-100% B in 0-0.5-6.5-7 min. UV measurements taken at 254 nm. Reaction progress was evaluated by monitoring KY-26 or XO44 consumption and quantified based on the signal from the caffeine standard. […]

[4] = HPLC solution reactivity of probe with p-cresol (tyrosine mimetic); format: physicochemical; conditions: UV 254 nm, TMG base, 0° C., longest time point tested 90 min
Description: as §2, §3

SILAC ratios (SR) from competitive chemical proteomic assay (PFKL [1]) | probinding activity (blockade of TH211 probe labeling), protein at ˜80 molecular weight (PFKL [2]) | Structure (SMILES) | other results
8.41 |  | COc1ccc(S(=O)(=O)n2cc(CCN3CCC(=C(c4ccc(F)cc4)c4ccc(F)cc4)CC3)nn2)cc1 | IC50 (PFKL [2]; HEK293T cells, compound 1 h, read-out: IC50 against PFKL, in situ TH211 chemical proteomic assay): 306 nM
1.04 |  | Cc1ccc(S(=O)(=O)n2cc(CCN3CCN(C(c4ccc(F)cc4)c4ccc(F)cc4)CC3)nn2)cc1 [TH208, 1-(Bis(4-fluorophenyl)methyl)-4-(2-(1-tosyl-1H-1,2,3-triazol-4-yl)ethyl)piperazine] | 
2.48 |  | O=S(=O)(c1ccc(F)cc1)n1cc(CCN2CCC(=C(c3ccc(F)cc3)c3ccc(F)cc3)CC2)nn1 [TH221, 4-(Bis(4-fluorophenyl)methylene)-1-(2-(1-((4-fluorophenyl)sulfonyl)-1H-1,2,3-triazol-4-yl)ethyl)piperidine] | 
0.95 |  | O=S(=O)(C1CC1)n1cc(CCN2CCC(=C(c3ccc(F)cc3)c3ccc(F)cc3)CC2)nn1 [TH223, 4-(bis(4-fluorophenyl)methylene)-1-(2-(1-(cyclopropylsulfonyl)-1H-1,2,3-triazol-4-yl)ethyl)piperidine] | 
 | good probinding activity | O=S(=O)(c1ccc2c(c1)OCCO2)n1cc(CCN2CCC(=C(c3ccc(F)cc3)c3ccc(F)cc3)CC2)nn1 [XJ-2-77, 4-(Bis(4-fluorophenyl)methylene)-1-(2-(1-((2,3-dihydrobenzo[b][1,4]dioxin-6-yl)sulfonyl-)-1H-1,2,3-triazol-4-yl)ethyl)piperidine] | 
 | good probinding activity | O=S(=O)(c1ccc2c(c1)OCO2)n1cc(CCN2CCC(=C(c3ccc(F)cc3)c3ccc(F)cc3)CC2)nn1 [XJ-2-87] | 
 | good probinding activity | O=S(=O)(c1ccc2c(c1)OC(F)(F)O2)n1cc(CCN2CCC(=C(c3ccc(F)cc3)c3ccc(F)cc3)CC2)nn1 [XJ-2-115, 4-(Bis(4-fluorophenyl)methylene)-1-(2-(1-((2,2-difluorobenzo[d][1,3]dioxol-5-yl)sulfonyl)-1H-1,2,3-triazol-4-yl)ethyl)piperidine] | 
 | good probinding activity | COc1ccccc1S(=O)(=O)n1cc(CCN2CCC(=C(c3ccc(F)cc3)c3ccc(F)cc3)CC2)nn1 [XJ-2-141, 4-(Bis(4-fluorophenyl)methylene)-1-(2-(1-((2-methoxyphenyl)sulfonyl)-1H-1,2,3-triazol-4-yl)ethyl)piperidine] | 
 |  | C#CCNC(=O)c1cc(Nc2cc(C3CC3)[nH]n2)nc(N2CCN(Cc3ccc(S(=O)(=O)F)cc3)CC2)n1 [XO44, reference compound] | reaction of probe with n-butylamine [3]: minimal reaction; time to near-complete depletion of probe in reaction with p-cresol [4]: > 90 min
